The results in this text go back to PMC8552062, “Contributions of UDP-Glucuronosyltransferases to Human Hepatic and Intestinal Metabolism of Ticagrelor and Inhibition of UGTs and Cytochrome P450 Enzymes by Ticagrelor and its Glucuronidated Metabolite” (Frontiers in Pharmacology, 2021).

The data set has as its target T1, UGT2B7 (Homo sapiens, UniProt P16662).
T1 sequence (P16662 24-529): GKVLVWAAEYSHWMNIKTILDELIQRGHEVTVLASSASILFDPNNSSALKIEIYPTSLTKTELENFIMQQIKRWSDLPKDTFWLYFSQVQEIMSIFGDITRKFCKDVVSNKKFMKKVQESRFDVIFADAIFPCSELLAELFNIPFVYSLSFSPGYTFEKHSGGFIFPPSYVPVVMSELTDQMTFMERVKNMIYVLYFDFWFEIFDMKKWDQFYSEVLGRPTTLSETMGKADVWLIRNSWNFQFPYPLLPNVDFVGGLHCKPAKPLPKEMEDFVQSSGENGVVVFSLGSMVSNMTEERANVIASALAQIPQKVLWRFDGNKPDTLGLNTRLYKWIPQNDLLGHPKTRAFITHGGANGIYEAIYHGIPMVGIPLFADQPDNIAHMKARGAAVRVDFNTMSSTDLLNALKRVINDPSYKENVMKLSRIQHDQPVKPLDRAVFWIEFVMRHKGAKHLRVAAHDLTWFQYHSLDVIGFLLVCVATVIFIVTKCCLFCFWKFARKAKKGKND
The data set can be described thus: Ticagrelor glucuronidation by recombinant human UGT2B7. The format is in vitro ADME. The note with it: recombinant human UGT2B7, pH 7.4. More on the design: purchased BD Gentest; host or cells: baculovirus-infected insect cells. Here is the method:
Ticagrelor glucuronidation was investigated in an in vitro incubation system by using HLM, HIM, and recombinant human UGTs. The incubation system consisted of enzyme sources (HLM, HIM, or human recombinant UGTs), various concentrations of ticagrelor (dissolved in 50% methanol, 1% v/v, 1, 2, 5, 10, 20, 50, 100, 200, 500 μM of final concentration), alamethicin (50 μg/mg protein), 5 mM MgCl2, 100 mM tris-HCL buffer (pH 7.4), and 5 mM UDPGA in a total volume of 100 μl. Alamethicin is a pore-forming polypeptide used to activate UGTs in HLM and HIM ([Fisher et al., 2000]). Preliminary studies were conducted to determine the optimal protein concentrations and incubation times. Linear conditions of ticagrelor-O-Glu formation from ticagrelor, i.e., HLM, 0.2 mg of protein/ml and 60 min, HIM, 0.2 mg of protein/ml and 60 min, and recombinant human UGTs, 0.2 mg of protein/ml and 60 min were selected. The incubation mixture without UDPGA was placed on ice for 15 min to activate UGT by alamethicin. […]
Kinetic analyses were performed using the mean values of triplicate determinations with either pooled HLM, HIM, or recombinant human UGTs. All data were analyzed by nonlinear regression analysis using the GraphPad Prism 6 (GraphPad Software Inc., CA, United States). […] Intrinsic clearance (CLint) was calculated by dividing Vmax by Km.

For orientation: microsomal CLint means the capacity of the preparation to metabolise the compound, expressed as a volume cleared per time.

With `CCCSc1nc(N[C@@H]2C[C@H]2c2ccc(F)c(F)c2)c2nnn([C@@H]3C[C@H](OCCO)[C@@H](O)[C@H]3O)c2n1` [Ticagrelor], the microsomal CLint was determined as 0.02 µL/min/mg.
